B1: BDNF: brain-derived neurotrophic factor, member of the neurotrophin nerve growth factor family, purchased from Merck (protein, UniProt P23560 19-247, looked up)
Neurotrophic factor BDNF …: APMKEANIRGQGGLAYPGVRTHGTLESVNGPKAGSRGLTSLADTFEHVIEELLDEDQKVRPNEENNKDADLYTSRVMLSSQVPLEPPLLFLLEEYKNYLDAANMSMRVRRHSDPARRGELSVCDSISEWVTAADKKTAVDMSGGTVTVLEKVPVSKGQLKQYFYETKCNPMGYTKEGCRGIDKRHWNSQCRTTQSYVRALTMDSKKRIGWRFIRIDTSCVCTLTIKRGR

System: RA-treated SH-SY5Y cells
Assay: Neurite outgrowth of RA-treated SH-SY5Y cells
Type: cell-based, human
Description: FIG. 1. BDNF promotes neurite outgrowth of RA-treated SH-SY5Y, and induces phosphorylation of NgR1. (A) SH-SY5Y cells were incubated with indicated reagents. Cell images were taken with phase contrast microscopy. (B) Number of cells extending neurite-like structures of more than 40 μm and total cell number were counted from images taken in (A). More than 300 cells were examined in each sample. The proportion of cells extending neurite-like structures of more than 40 μm was indicated as a percentage of total cell number. An average of three experiments is shown. Error bars indicate S. E. between experiments. Data were analysed with student's t test. (C) Whole cell extracts were prepared from RA-treated SH-SY5Y cells after incubation with or without BDNF for 24 hours, and were analysed by SDS-PAGE. Immunoblotting was performed with the indicated antibodies. (D) Whole cell extract prepared from cells treated with both RA and BDNF was incubated with the indicated reagents for 1 hour at 37° C. Immunoblotting was performed with anti-NgR1 antibody. (E) RA-treated SH-SY5Y cells were incubated with BDNF in the presence or absence of one of the following: PKC inhibitor—500 nM Gö6983 or Gö6976; PKA inhibitor—2 μM KT5720 or a PKA inhibitor peptide 14-22; or either 500 nM or 1 μM of a casein kinase inhibitor, for 24 hours. Whole cell extracts prepared from these cells were analysed by SDS-PAGE. Immunoblotting was performed with anti-NgR1 antibody.
FIG. 2. CK2 promotes neurite outgrowth of RA-treated SH-SY5Y cells without BDNF. (A) RA-treated SH-SY5Y cells were incubated with the indicated reagents for 24 hours. Cell images were taken with phase contrast microscopy. (B) Number of cells extending neurite-like structures of more than 40 μm and total cell number were counted from images taken in (A). More than 300 cells were examined in each sample. Calculation was done as FIG. 1B. Result of student's t test between RA alone and RA+CK II+ATP was p=0.0014. (C) Myc-tagged wild type and mutant versions of NgR1 were over-expressed in SH-SY5Y cells. The cells were treated with RA, CK2 and ATP. Over-expressed NgR1-Myc was detected with anti-Myc antibody. (D) SH-SY5Y cells over-expressing 281S/A mutant NgR1-Myc were incubated with RA and NEP1-40. (E) SH-SY5Y cells over-expressing 281S/D mutant NgR1-Myc were treated as (C).
After fixation, beta-tubulin III was detected with anti-beta-tubulin III antibody. B, Wild type or 281S/A mutant NgR1-Myc was over-expressed in SH-SY5Y cells. After 5 days treatment with RA, these cells were incubated with 500 U/ml PKA and 500 nM (74 kBq/ml) ATP. Then, NgR1-Myc was immuno-precipitated and analysed with SDS-PAGE. […] NgR1-Myc was detected with anti-Myc antibody. […]

[1] = RA-treated SH-SY5Y, substance alone, 24 hours

Row | Molecule | neurite outgrowth [1] | neurite outgrowth (cells over-expressing 281S/A mutant NgR1, NEP1-40 for 24 hours)
1 | Nc1ncnc2c1ncn2[C@@H]1O[C@H](COP(=O)(O)OP(=O)(O)OP(=O)(O)O)[C@@H](O)[C@H]1O [ATP] | Neither addition of ATP alone nor CK2 alone to the culture medium induced neurite outgrowth | –
2 | NEP1-40: a competitive inhibitor of Nogo-66 binding to NgR1 (MEDLDQSPLVSSSDSPPRPQPAFKYQFVREPEDEEEEEEE; Nogo-66 residues 1-40; UniProt Q9NQC3 1-40, looked up, fragment) [reference compound] | promoted neurite outgrowth | showed neurite outgrowth
3 | B1 | efficient neurite outgrowth | –

— patent publication US9089565B2, “Compositions and methods for causing neurite outgrowth” (MEDICAL RESEARCH COUNCIL, priority 2009, dated 2015)
